In general, Km refers to the concentration of substrate that gives half-maximal velocity.

From paper PMC5122774, “Cloning of Glycerophosphocholine Acyltransferase (GPCAT) from Fungi and Plants” (The Journal of Biological Chemistry, 2016) come the findings set out here.

One data set concerns the target T1, RcGPCAT (Ricinus communis, UniProt B9RK42).
T1 construct: gene GPC1
Put plainly: radiometric acyltransferase assay, yeast microsomes. The conditions noted are these: [14C]GPC 4 mM; pH 7.2 phosphate, 1% BSA, 30 °C. It counts as biochemical.

Substrate in data set [1]: C[N+](C)(C)CCOP(=O)([O-])OC[C@H](O)CO
Described as above. The format is biochemical, Saccharomyces cerevisiae. The conditions noted are these: 18:1-CoA as acyl donor, pH 7.2 phosphate, 1% BSA, 30 °C, labelled compound.

T1 sequence (B9RK42 whole entry, looked up): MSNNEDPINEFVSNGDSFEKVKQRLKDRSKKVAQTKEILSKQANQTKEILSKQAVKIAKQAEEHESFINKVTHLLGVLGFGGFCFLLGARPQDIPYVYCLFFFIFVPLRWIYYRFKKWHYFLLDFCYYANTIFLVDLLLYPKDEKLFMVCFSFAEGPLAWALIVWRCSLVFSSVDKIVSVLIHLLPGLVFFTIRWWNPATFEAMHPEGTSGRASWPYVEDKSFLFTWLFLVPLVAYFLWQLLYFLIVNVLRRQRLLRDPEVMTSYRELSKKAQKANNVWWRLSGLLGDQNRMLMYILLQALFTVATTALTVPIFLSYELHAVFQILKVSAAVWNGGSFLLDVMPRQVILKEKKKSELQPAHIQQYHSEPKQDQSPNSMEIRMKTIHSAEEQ

As for `CCCCCC[C@@H](O)C/C=C\CCCCCCCC(=O)SCCNC(=O)CCNC(=O)[C@H](O)C(C)(C)COP(=O)(O)OP(=O)(O)OC[C@H]1O[C@@H](n2cnc3c(N)ncnc32)[C@H](O)[C@@H]1OP(=O)(O)O` [ricinoleoyl-CoA], at RcGPCAT, the “radiometric acyltransferase assay, yeast microsomes” value was “the castor GPCAT accepted all of the acyl-CoAs tested, including ricinoleoyl-CoA”.

B1: ScGPCAT (Gpc1p) (Saccharomyces cerevisiae S288C) (protein)
chain: MYKLDNNDIDDETNNSVSLTSLLEFLDPIASKVVSKYYHGSHLSKAEQKLRNFEGFRRRKPHHEHDSHHPHHLNRSRSFLQLEDFKVRALQRIRNLDKPLDSIFFKNSSRLEKAFYPFTLFNIFFIGFLMGRFPEWFHVYYTILFFVLMPIRFYTYYKTKNHYFLADFCYFVNMLCLLFIWIFPYSYSLFQSCFAFTFGTLCFAVITWRNSLVIHSIDKTTSCFIHIIPPCVMYVIYHGLPLEYKIERFPGAIIQSELDIKKNILWTSLYYLVWQSLYHYFITLKKSSKIKSGERMTSFEYLTTHQFKNFWAVKLRSPWPMIIYTLSQYFYQLFTMLLCGIWIRYKLAAALFLTIVFLWASHNGATYYIDHYGKNFEKEVDRLRLEVENLQQKLQPDSDAVISDASVNDKDYLNVNRDEDFDDSSSVSSKSD
notes: full-length, 52 kDa, eight predicted TM helices; pYES-DEST52 (GAL1 promoter) in yeast ale1Δ gpc1Δ, microsomal membranes
Consider B1, for which the Michaelis-Menten constant (Km) in data set [1] was 450 µM.
